Assay [1] concerns rear paw which has received the carrageenin. In words: Anti-inflammatory activity: carrageenin-induced rear paw swelling, oral administration. Conditions: for inhibition in vivo at 4 mg/kg / inhibition in vivo at 16 mg/kg / inhibition in vivo at 64 mg/kg / inhibition in vivo at 128 mg/kg / inhibition in vivo at 256 mg/kg: Rattus norvegicus, read-out: % of inhibition (reduction of swelling); for inhibition in vivo at 4 mg/kg: 4 mg/kg oral administration; for inhibition in vivo at 16 mg/kg: 16 mg/kg oral administration; for inhibition in vivo at 128 mg/kg: 128 mg/kg oral administration; for inhibition in vivo at 256 mg/kg: 256 mg/kg oral administration. The assay is classed as in vivo, rats (male SPF, strain OFA). On the procedure:
Batches of 12 male SPF rats, strain OFA, weighing 120-130 g each, are given the product to be tested by oral administration 2 hours before and 30 minutes before (1/2 dose each time) subcutaneous plantar injection of 0.05 cm^3 of a 1% solution of carrageenin. The volume of the rear paw which has received the carrageenin is measured at regular intervals.

In assay [2] the test system is pain reactions (abdominal contortions). Put plainly: Analgesic activity: phenylbenzoquinone-induced pain reactions, oral administration. The assay is classed as in vivo, mice (male, SPF1, strain OF1). Conditions: Mus musculus; for inhibition in vivo at 8 mg/kg: 8 mg/kg oral administration; for inhibition in vivo at 16 mg/kg: 16 mg/kg oral administration; for inhibition in vivo at 32 mg/kg: 32 mg/kg oral administration; for inhibition in vivo at 64 mg/kg: 64 mg/kg oral administration; for inhibition in vivo at 256 mg/kg: 256 mg/kg oral administration; for inhibition in vivo at 4 mg/kg: 4 mg/kg oral administration. As for the experimental part:
Batches of 6 male mice (SPF1, strain OF1), weighing 19-20 g each are given the product to be tested, by oral administration. One hour afterwards, each mouse is injected intraperitoneally with 0.3 cm^3 of an 0.02% strength phenylbenzoquinone solution and from the 5th to the 10th minute after this latter treatment, the number of pain reactions (abdominal contortions) is counted. The table which follows gives the percentage inhibition of these reactions.

Where a name gives a salt, the structure may show the parent alone.

On to `CC(C(=O)OCCN1CCOCC1)c1cc2c(s1)CC(C(C)C)C2` (stereo not drawn) [Example 36, Hydrochloride of the morpholinoethyl ester of α-methyl-(5-isopropyl-4,5-dihydro-6H-cyclopenta[b]thienyl-2)-acetic acid], for which, in assay [1], the inhibition in vivo at 4 mg/kg worked out at 29%, the inhibition in vivo at 16 mg/kg was 30%, the inhibition in vivo at 128 mg/kg was 56% and the inhibition in vivo at 256 mg/kg is 66%. Moreover, in assay [1] (64 mg/kg oral administration), the inhibition in vivo at 64 mg/kg was found to be 62%. In assay [2], this molecule registered an inhibition in vivo at 8 mg/kg of 23%, an inhibition in vivo at 16 mg/kg of 80% and an inhibition in vivo at 32 mg/kg of 84%.

Turning to `CC(C)C1Cc2cc(CC(=O)OCCN(C)C)sc2C1` (stereo not shown) [Example 40, Hydrochloride of the dimethylaminoethyl ester of (5-isopropyl-4,5-dihydro-6H-cyclopenta[b]thienyl-2)-acetic acid], in assay [1], the inhibition in vivo at 4 mg/kg came out at 8%, the inhibition in vivo at 16 mg/kg amounted to 7%, the inhibition in vivo at 128 mg/kg was 22% and the inhibition in vivo at 256 mg/kg was found to be 32%. Further, the inhibition in vivo at 64 mg/kg in assay [1] (64 mg/kg oral administration) was 13%. In assay [2], this molecule yielded an inhibition in vivo at 16 mg/kg of 0%, an inhibition in vivo at 64 mg/kg of 31% and an inhibition in vivo at 256 mg/kg of 88%.

In the case of `CCC1Cc2cc(C(C)C(=O)OCCN(C)C)sc2C1` (stereo not drawn) [Example 34, Hydrochloride of the dimethylaminoethyl ester of α-methyl-(5-ethyl-4,5-dihydro-6H-cyclopenta[b]thienyl-2)-acetic acid], in assay [1], the inhibition in vivo at 4 mg/kg was determined as 3%, the inhibition in vivo at 16 mg/kg was 12%, the inhibition in vivo at 128 mg/kg is 64% and the inhibition in vivo at 256 mg/kg came to 82%. The inhibition in vivo at 64 mg/kg in assay [1] (64 mg/kg oral administration) came to 45%. In assay [2], this molecule showed an inhibition in vivo at 4 mg/kg of 21%, an inhibition in vivo at 8 mg/kg of 46%, an inhibition in vivo at 16 mg/kg of 74% and an inhibition in vivo at 32 mg/kg of 95%.

For `CCC1Cc2cc(CC(=O)OCCN(C)C)sc2C1` (stereo not shown) [Example 33, Hydrochloride of the dimethylaminoethyl ester of (5-ethyl-4,5-dihydro-6H-cyclopenta[b]thienyl-2)-acetic acid], in assay [1], the inhibition in vivo at 4 mg/kg was determined as 2%, the inhibition in vivo at 16 mg/kg came to 17%, the inhibition in vivo at 128 mg/kg came to 54% and the inhibition in vivo at 256 mg/kg was 52%. Moreover, the inhibition in vivo at 64 mg/kg in assay [1] (64 mg/kg oral administration) amounted to 55%. In assay [2], the inhibition in vivo at 16 mg/kg stood at 37%, the inhibition in vivo at 64 mg/kg worked out at 17% and the inhibition in vivo at 256 mg/kg turned out to be 95%.

In the case of `CC(C(=O)OCCN(C)C)c1cc2c(s1)CC(C(C)C)C2` (stereo not shown) [Example 37], in assay [1] (64 mg/kg oral administration), the “% of inhibition (reduction of swelling)” value worked out at 45Z. Also, in assay [1], the inhibition in vivo at 4 mg/kg was 5%, the inhibition in vivo at 16 mg/kg came out at 35%, the inhibition in vivo at 128 mg/kg was 63% and the inhibition in vivo at 256 mg/kg came to 58%. In assay [2], this molecule gave an inhibition in vivo at 4 mg/kg of 10%, an inhibition in vivo at 8 mg/kg of 53%, an inhibition in vivo at 16 mg/kg of 42% and an inhibition in vivo at 32 mg/kg of 80%.

As to `CCC1Cc2cc(C(C)C(=O)O)sc2C1` (stereo not shown) [23 & 27], in assay [1], the inhibition in vivo at 16 mg/kg was 30%, the inhibition in vivo at 128 mg/kg was found to be 66% and the inhibition in vivo at 256 mg/kg was 56%. Moreover, in assay [1] (64 mg/kg oral administration), the inhibition in vivo at 64 mg/kg was 67%. Moreover, in assay [2], the inhibition in vivo at 8 mg/kg was found to be 7%, the inhibition in vivo at 16 mg/kg stood at 35%, the inhibition in vivo at 32 mg/kg worked out at 79% and the inhibition in vivo at 64 mg/kg stood at 98%.

As to `CCC1Cc2cc(C(C)C(=O)OCCN3CCOCC3)sc2C1` (stereo not drawn) [Example 30, Hydrochloride of the morpholinoethyl ester of α-methyl(5-ethyl-4,5-dihydro-6H-cyclopenta[b]thienyl-2)-acetic acid], in assay [1], the inhibition in vivo at 4 mg/kg was 18%, the inhibition in vivo at 16 mg/kg turned out to be 38%, the inhibition in vivo at 128 mg/kg came out at 67% and the inhibition in vivo at 256 mg/kg turned out to be 79%. The inhibition in vivo at 64 mg/kg in assay [1] (64 mg/kg oral administration) was determined as 53%. Further, in assay [2], the inhibition in vivo at 8 mg/kg stood at 9%, the inhibition in vivo at 16 mg/kg turned out to be 6%, the inhibition in vivo at 32 mg/kg is 85% and the inhibition in vivo at 64 mg/kg amounted to 93%.

On to `CCC1Cc2cc(CC(=O)O)sc2C1` (stereo not shown) [Example 17, (5-Ethyl-4,5-dihydro-6H-cyclopenta[b]thienyl-2)-acetic acid], for which, in assay [1], the inhibition in vivo at 4 mg/kg turned out to be 17%, the inhibition in vivo at 16 mg/kg is 24%, the inhibition in vivo at 128 mg/kg turned out to be 52% and the inhibition in vivo at 256 mg/kg stood at 66%. For the same molecule, the inhibition in vivo at 64 mg/kg in assay [1] (64 mg/kg oral administration) came to 55%. In assay [2], this molecule returned an inhibition in vivo at 16 mg/kg of 17%, an inhibition in vivo at 32 mg/kg of 58% and an inhibition in vivo at 64 mg/kg of 63%.

As to `CC(C)C1Cc2cc(CC(=O)O)sc2C1` (stereo not shown) [Example 18, (5-Isopropyl-4,5-dihydro-6H-cyclopenta[b]thienyl-2)-acetic acid], in assay [1], the inhibition in vivo at 4 mg/kg turned out to be 0%, the inhibition in vivo at 16 mg/kg worked out at 0%, the inhibition in vivo at 128 mg/kg was found to be 47% and the inhibition in vivo at 256 mg/kg was determined as 57%. In assay [1] (64 mg/kg oral administration), the inhibition in vivo at 64 mg/kg worked out at 31%. In assay [2], the inhibition in vivo at 16 mg/kg stood at 4%, the inhibition in vivo at 32 mg/kg was 27% and the inhibition in vivo at 64 mg/kg turned out to be 61%.

Take `CCC1Cc2cc(CC(=O)OCCN3CCOCC3)sc2C1` (stereo not shown) [Example 32, Hydrochloride of the morpholinoethyl ester of (5-ethyl-4.5-dihydro-6H-cyclopenta[b]thienyl-2)-acetic acid]: in assay [1], the inhibition in vivo at 4 mg/kg came out at 0%, the inhibition in vivo at 16 mg/kg amounted to 16%, the inhibition in vivo at 128 mg/kg was 51% and the inhibition in vivo at 256 mg/kg was found to be 53%. Besides, in assay [1] (64 mg/kg oral administration), the inhibition in vivo at 64 mg/kg amounted to 20%. In assay [2], the inhibition in vivo at 16 mg/kg came to 25%, the inhibition in vivo at 32 mg/kg is 48% and the inhibition in vivo at 64 mg/kg came out at 53%.

Turning to `CC(C)C1Cc2cc(CC(=O)OCCN3CCOCC3)sc2C1` (stereo not shown) [Example 39, Hydrochloride of the morpholinoethyl ester of (5-isopropyl-4,5-dihydro-6H-cyclopenta[b]thienyl-2)-acetic acid], in assay [1], the inhibition in vivo at 4 mg/kg amounted to 7%, the inhibition in vivo at 16 mg/kg is 23%, the inhibition in vivo at 128 mg/kg was found to be 53% and the inhibition in vivo at 256 mg/kg amounted to 56%. The inhibition in vivo at 64 mg/kg in assay [1] (64 mg/kg oral administration) is 20%. In assay [2], this molecule showed an inhibition in vivo at 64 mg/kg of 12% and an inhibition in vivo at 256 mg/kg of 53%.

As to `CC(C(=O)O)c1cc2c(s1)CC(C(C)C)C2` (stereo not shown) [24 & 28], in assay [1], the inhibition in vivo at 4 mg/kg came out at 0%, the inhibition in vivo at 16 mg/kg worked out at 32%, the inhibition in vivo at 128 mg/kg turned out to be 59% and the inhibition in vivo at 256 mg/kg came out at 46%. The inhibition in vivo at 64 mg/kg in assay [1] (64 mg/kg oral administration) worked out at 63%. In assay [2], this molecule gave an inhibition in vivo at 4 mg/kg of 0%, an inhibition in vivo at 8 mg/kg of 35%, an inhibition in vivo at 16 mg/kg of 66% and an inhibition in vivo at 32 mg/kg of 89%. The molecule also yielded an inhibition in vivo at 64 mg/kg in assay [2] of 96%.

For the origin of these results see patent publication US4156000A, “Cyclopenta[b]thiophene derivatives” (Hexachimie, priority 1976, dated 1979).
